From the CheMixHub viscosity set

Experiment: xn = mol fraction of the nth substance listed

CCC12CC3CC(CC(C3)C1)C2 + CCCCCCCCC
viscosity [mPa·s], 100 kPa
Settings	x1 = 0.0998	x1 = 0.2013	x1 = 0.3004	x1 = 0.4014	x1 = 0.5002	x1 = 0.5999	x1 = 0.7002	x1 = 0.7995	x1 = 0.9008
293.15 K	1.043	1.335	1.642	1.902	2.234	2.701	3.287	4.086	5.133
298.15 K	0.972	1.243	1.492	1.728	2.019	2.384	2.881	3.537	4.44
303.15 K	0.921	1.141	1.369	1.577	1.836	2.144	2.581	3.158	3.898
308.15 K	0.836	1.053	1.261	1.448	1.684	1.957	2.34	2.833	3.47
313.15 K	0.786	0.985	1.166	1.334	1.547	1.792	2.128	2.556	3.114
318.15 K	0.729	0.901	1.073	1.232	1.416	1.644	1.94	2.32	2.815
323.15 K	0.696	0.85	1.006	1.144	1.317	1.515	1.782	2.115	2.547

O=C1CCCCC1 + CCCCCCCCC
viscosity [mPa·s], 101.33 kPa
Settings	x1 = 0.0999	x1 = 0.1981	x1 = 0.3012	x1 = 0.4032	x1 = 0.4987	x1 = 0.6007	x1 = 0.6942	x1 = 0.7981	x1 = 0.9006
298.15 K	0.683	0.726	0.772	0.833	0.909	1.022	1.134	1.321	1.544
303.15 K	0.639	0.675	0.718	0.775	0.842	0.936	1.043	1.21	1.41
308.15 K	0.6	0.632	0.672	0.723	0.784	0.869	0.967	1.116	1.294

CC(C)CC(C)(C)C + CCCCCCCCCC
298.15 K, 101 kPa
Settings	viscosity [mPa·s]
x1 = 0.08287	0.7981
x1 = 0.2249	0.7573
x1 = 0.3493	0.7059
x1 = 0.4309	0.6689
x1 = 0.5526	0.6214
x1 = 0.6412	0.5981
x1 = 0.735	0.5645
x1 = 0.8255	0.5303
x1 = 0.8936	0.512
x1 = 0.9357	0.4966

O=C1CCCCC1 + CCCCCCCCCC
viscosity [mPa·s], 101.33 kPa
Settings	x1 = 0.1023	x1 = 0.2073	x1 = 0.3011	x1 = 0.4017	x1 = 0.5042	x1 = 0.6034	x1 = 0.703	x1 = 0.8	x1 = 0.9018
298.15 K	0.87	0.902	0.937	0.991	1.063	1.143	1.256	1.439	1.625
303.15 K	0.806	0.836	0.868	0.916	0.984	1.053	1.152	1.316	1.48
308.15 K	0.752	0.779	0.812	0.851	0.909	0.973	1.064	1.212	1.357
